Here are results for 13 compounds from PMC3434256 (Journal of the American Chemical Society, 2012).

Each structure is given as a SMILES string. “And” between values parts separate entries of the source, which are not always exact repeats. Equal values may be shown once. Read-outs that look alike come from different tables or passages of the source. Marks after values point to notes of the source that are not given here.

The nature of data set [1]: Nonenzymatic C-6 deuterium exchange catalyzed by deuterioxide ion in D2O. The conditions noted are these: for kDO, second-order rate constant for deuterioxide-ion-catalyzed deuterium exchange at C-6: D2O; for kDO, second-order rate constant for deuterioxide-ion-catalyzed deuterium exchange at C-6 / kHO, second-order rate constant for proton transfer from C-6 to hydroxide ion: 25 °C; for kHO, second-order rate constant for proton transfer from C-6 to hydroxide ion: H2O, calculated from kDO using kDO/kHO = 2.4; for (Keq)aq, equilibrium constant for proton transfer from C-6 to a primary amine base of pKRNH3 = 7 in water: eq 12, pKCH of model nucleosides uridine and 5-fluorouridine.

Data set [2] deals with ScOMPDC. As to conditions: cited from earlier work; for Kd: read-out: (Kd)obsd, observed affinity of ScOMPDC, pH 7.2, H2O.
The conditions of data set [3]: cited from earlier work.
Data set [4] has as its target T1, yeast orotidine 5′-monophosphate decarboxylase (ScOMPDC) (Saccharomyces cerevisiae, UniProt P03962, A160S/C155S/N267D/S2H). As to conditions: for kex, turnover number for deuterium exchange into enzyme-bound substrate / kex/Kd, second-order rate constant for enzyme-catalyzed deuterium exchange / (kex)max, intrinsic first-order rate constant (turnover number) for deuterium exchange into saturating substrate bound to the deprotonated enzyme: I = 0.1 (NaCl); for kex/Kd, second-order rate constant for enzyme-catalyzed deuterium exchange: ratio of kex and Kd; for free energy of binding to form the Michaelis complex: deprotonated enzyme; for (Keq)enz, equilibrium constant for proton transfer from C-6 of bound nucleotide to ScOMPDC: eq 11, krot = 10^7 s^−1; for Kd′/Kd, ratio of dissociation constants from protonated and deprotonated enzyme: from pKE - pKES; for stabilization of enzyme-bound vinyl carbanion relative to bound nucleotide: lower limit; for (kex)max, intrinsic first-order rate constant (turnover number) for deuterium exchange into saturating substrate bound to the deprotonated enzyme: pD-rate profile of kex fit to eq 7, D2O, 25 °C.

For data set [5], the target named is T1, yeast orotidine 5′-monophosphate decarboxylase (ScOMPDC). Description: biochemical.
Data set [6] is described as follows: pKa of the phosphoryl group by titration. The format is physicochemical. The conditions noted are these: D2O, I = 0.1, estimated from UMP pKa in H2O plus 0.5 unit.
The nature of data set [7]: pKa of the N-3 hydron, spectrophotometric. In kind it is physicochemical.
The conditions of data set [8]: titration, H2O, 25 °C, I = 0.1; cited from earlier work.
For data set [9] the following is noted: aqueous solution; cited from earlier work.
Data set [10] has as its system ScOMPDC. The conditions noted are these: pH 7.1, 25 °C; cited from earlier work.

T1 sequence (P03962 whole entry S2H/C155S/A160S/N267D): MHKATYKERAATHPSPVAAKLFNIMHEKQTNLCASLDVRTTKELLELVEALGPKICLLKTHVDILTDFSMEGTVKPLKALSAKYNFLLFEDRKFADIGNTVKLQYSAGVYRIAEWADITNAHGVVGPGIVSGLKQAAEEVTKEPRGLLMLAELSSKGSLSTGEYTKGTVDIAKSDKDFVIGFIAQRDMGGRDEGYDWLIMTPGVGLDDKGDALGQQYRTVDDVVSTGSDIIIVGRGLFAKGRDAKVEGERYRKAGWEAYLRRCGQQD

Turning to `Cn1cc(F)c(=O)n(C)c1=O`, in data set [1], the “kDO, second-order rate constant for deuterioxide-ion-catalyzed deuterium exchange at C-6” value turned out to be 0.043 M⁻¹ s⁻¹ and the “kHO, second-order rate constant for proton transfer from C-6 to hydroxide ion” value (from here on “kHO, second-order rate constant”) was 0.018 M⁻¹ s⁻¹.

As for `O=c1ccn([C@H]2C[C@H](O)[C@@H](COP(=O)(O)O)O2)c(=O)[nH]1` [2′-deoxyuridine 5′-monophosphate], the Kd at ScOMPDC [2] was 170 µM.

As to `O=c1[nH]c(=O)n(C2OC(CO)C(O)C2O)cc1F` (stereo not drawn) [5-Fluorouridine N-3 Anion, 5-fluorouridine N-3 anion], in data set [1], the “kDO, second-order rate constant for deuterioxide-ion-catalyzed deuterium exchange at C-6” value was 6.8e-05 M⁻¹ s⁻¹ and the “kHO, second-order rate constant” value was 2.8e-05 M⁻¹ s⁻¹.

As to `O=c1[nH]c(=O)n([C@@H]2O[C@H](CO)[C@@H](O)[C@H]2O)cc1F` [5-Fluorouridine, 5-fluorouridine], in data set [1], the “kDO, second-order rate constant for deuterioxide-ion-catalyzed deuterium exchange at C-6” value stood at 1.7 M⁻¹ s⁻¹ and the “kHO, second-order rate constant” value is 0.71 M⁻¹ s⁻¹. In addition, the “ko = kHO[HO^−], observed rate constant for C-6 deprotonation by hydroxide ion” value in [1] (water, pH 7.1) is 9e-08 s⁻¹.

As to `O=c1[nH]c(=O)n([C@H]2C[C@H](O)[C@@H](COP(=O)(O)O)O2)cc1F` [5-fluoro-2′-deoxyuridine 5′-monophosphate], the equilibrium dissociation constant (Kd) at ScOMPDC [2] was 250 µM. In data set [3] (H2O, 25 °C, I = 0.1), the “pKa of the N-3 proton (pKNH)” value was 7.90.

Consider `O=c1[nH]c(=O)n([C@H]2C[C@H](O)[C@@H](CO)O2)cc1F` [5-fluoro-2′-deoxyuridine], for which, in data set [3] (H2O, 25 °C, I = 0.1), the “pKa of the N-3 proton” value is 7.67.

On to `O=c1cnn([C@@H]2O[C@H](COP(=O)(O)O)[C@@H](O)[C@H]2O)c(=O)[nH]1` [6-aza-UMP, 6-azauridine 5′-monophosphate], for which, in data set [4] (2 mM 6-aza-UMP, 260 μM ScOMPDC, 2 days, pD 9.3, 25 °C), the “deuterium exchange into UMP (2 mM) in the presence of inhibitor” value is listed as “no detectable deuterium exchange”. Besides, the Ki on ScOMPDC [2] (pH 7.2, competitive inhibitor) is 0.093 µM.

In the case of `O=c1[nH]c(=O)n([C@@H]2O[C@H](COP(=O)(O)O)[C@@H](O)[C@H]2O)cc1F` [F-UMP, 5-fluorouridine 5′-monophosphate], the “decrease in pKa of the side chain of Lys-93 upon binding (pKE - pKES)” value in data set [4] turned out to be 1.4 unit. In addition, in data set [4], the “transition state stabilization for deuterium exchange” value stood at 14 kcal/mol. Also, the “kex, turnover number for deuterium exchange into enzyme-bound substrate” value amounted to 0.00818 s⁻¹ in [4] (D2O, pD 6.45, 25 °C, fit to eq 5); 0.0169 s⁻¹ in data set [4] (D2O, pD 7.03, 25 °C, fit to eq 5); 0.0242 s⁻¹ in [4] (D2O, pD 7.37, 25 °C, fit to eq 5); 0.0324 s⁻¹ in [4] (D2O, pD 7.64, 25 °C, fit to eq 5); 0.0438 s⁻¹ in data set [4] (D2O, pD 8.15, 25 °C, fit to eq 5); 0.0384 s⁻¹ in data set [4] (D2O, pD 9.33, 25 °C, fit to eq 5). The “kex/Kd, second-order rate constant for enzyme-catalyzed deuterium exchange” value was 8.3 M⁻¹ s⁻¹ in [4] (D2O, pD 6.45, 25 °C); 33 M⁻¹ s⁻¹ in data set [4] (D2O, pD 7.03, 25 °C); 140 M⁻¹ s⁻¹ in [4] (D2O, pD 7.37, 25 °C); 300 M⁻¹ s⁻¹ in data set [4] (D2O, pD 7.64, 25 °C); 400 M⁻¹ s⁻¹ in [4] (D2O, pD 8.15, 25 °C); 200 M⁻¹ s⁻¹ in data set [4] (D2O, pD 9.33, 25 °C). In addition, the “kex for deuterium exchange” value in data set [4] (D2O, pD 8.15, 25 °C, I = 0.10 (NaCl), fit of kobsd/[E] to eq 4) turned out to be 0.048 s⁻¹. The “stabilization of the transition state for deuterium exchange by the 5-fluoro substituent” value in [4] (F-UMP vs UMP) is on record as 4.8 kcal/mol. For the same compound, the “pKE, pKa of the essential residue at the free enzyme” value in data set [4] (Saccharomyces cerevisiae) is reported as 8.5 ± 0.2 ^d. In addition, the “pKES, pKa of the essential residue (Lys-93) at the E•S complex” value in data set [4] (Saccharomyces cerevisiae) is 7.1 ± 0.1 ^f. The “free energy of binding to form the Michaelis complex” value in data set [4] is 6.4 kcal/mol. Also, in data set [4], the “(Keq)enz, equilibrium constant for proton transfer from C-6 of bound nucleotide to ScOMPDC” value is 4.1 × 10^−9. Further, the “Kd′/Kd, ratio of dissociation constants from protonated and deprotonated enzyme” value in [4] worked out at 25. The “stabilization of enzyme-bound vinyl carbanion relative to bound nucleotide” value in data set [4] is on record as “at least 13 kcal/mol”. In [4], the “(kex)max, intrinsic first-order rate constant (turnover number) for deuterium exchange into saturating substrate bound to the deprotonated enzyme” value turned out to be 0.041 s⁻¹. Also, in [4] (ratio of (kex)max/Kd and ko for 5-fluorouridine at pH 7.1), the “total enzymatic rate acceleration for deuterium exchange” value was found to be 3e+10 M⁻¹. Also, binding in data set [5] was put at a Kd of 140 µM. Further, in [1], the “(Keq)aq, equilibrium constant for proton transfer from C-6 to a primary amine base of pKRNH3 = 7 in water” value is given as 8 × 10^−19. The “pKSD2, ionization of the phosphoryl group” value in [6] is 6.8. Besides, the figures for the pKa in [7] (buffered D2O) and in data set [7] (buffered H2O) were 8.37 ± 0.05 and 7.84 ± 0.03, respectively.

With `O=C(O)c1cc(=O)[nH]c(=O)n1[C@@H]1O[C@H](COP(=O)(O)O)[C@@H](O)[C@H]1O` [OMP, orotidine 5′-monophosphate], the “pKa of the phosphoryl group” value in [8] is recorded as 6.38. Further, the “ko, nonenzymatic decarboxylation” value in data set [9] was 2.8e-16 s⁻¹. For the same compound, in the data set on ScOMPDC [10], the kcat for decarboxylation was 15 s⁻¹.

With `O=c1ccn([C@@H]2O[C@H](COP(=O)(O)O)[C@@H](O)[C@H]2O)c(=O)[nH]1` [UMP, uridine 5′-monophosphate], the “pKa of the phosphoryl group” value in [8] was 6.26 and 6.3. Moreover, in data set [4], the “decrease in pKa of the side chain of Lys-93 upon binding (pKE - pKES)” value was found to be 0.5 unit; the “free energy of binding to form the Michaelis complex” value is 6.4 kcal/mol; the “(Keq)enz, equilibrium constant for proton transfer from C-6 of bound nucleotide to ScOMPDC” value was 1.2 × 10^−12; the “Kd′/Kd, ratio of dissociation constants from protonated and deprotonated enzyme” value is given as 3. In addition, in data set [4], the “stabilization of enzyme-bound vinyl carbanion relative to bound nucleotide” value is recorded as “at least 13 kcal/mol” and the “(kex)max, intrinsic first-order rate constant (turnover number) for deuterium exchange into saturating substrate bound to the deprotonated enzyme” value worked out at 1.2e-05 s⁻¹. Also, the “kex, turnover number for deuterium exchange into enzyme-bound substrate” value in data set [4] (D2O, pD 7.03, 25 °C, average of kobsd[UMP]o/[E]) is 1.2e-06 s⁻¹. Further, the “kex, turnover number for deuterium exchange into enzyme-bound substrate” value in [4] (D2O, pD 7.58, 25 °C, average of kobsd[UMP]o/[E]) was 3.19e-06 s⁻¹. Besides, in data set [4] (D2O, pD 8.13, 25 °C, average of kobsd[UMP]o/[E]), the “kex, turnover number for deuterium exchange into enzyme-bound substrate” value was found to be 7.53e-06 s⁻¹. For the same compound, the “kex, turnover number for deuterium exchange into enzyme-bound substrate” value in [4] (D2O, pD 9.34, 25 °C, average of kobsd[UMP]o/[E]) is 1.15e-05 s⁻¹. Moreover, in data set [4] (pD 7.0), the “hydrolysis of the 5′-phosphoryl group during exchange reaction” value is “up to 19%” and the “hydrolysis of the glycosidic bond to give uracil during exchange reaction” value was “up to 24%”. Also, the “hydrolysis of the 5′-phosphoryl group to give uridine during exchange reaction” value in data set [4] (pD 7.6 – 9.3) is “up to 4%”. For the same compound, the “pKa of the N-3 proton (pKNH)” value in data set [3] (H2O, 25 °C, I = 0.1) was 9.7. Also, the pKNH in data set [3] (ref Jencks, Regenstein, Handbook of Biochemistry and Molecular Biology 1976) is on record as 9.5. Moreover, in [1], the “(Keq)aq, equilibrium constant for proton transfer from C-6 to a primary amine base of pKRNH3 = 7 in water” value is listed as 2 × 10^−22.

In the case of `O=c1ccn([C@@H]2O[C@H](CO)[C@@H](O)[C@H]2O)c(=O)[nH]1` [Uridine N-3 Anion, uridine N-3 anion], in data set [1], the “kDO, second-order rate constant for deuterioxide-ion-catalyzed deuterium exchange at C-6” value stood at 1.5e-08 M⁻¹ s⁻¹ and the “kHO, second-order rate constant” value is 6.3e-09 M⁻¹ s⁻¹.

For the compound `O=c1ccn([C@@H]2O[C@H](CO)[C@@H](O)[C@H]2O)c(=O)[nH]1` [Uridine, uridine], in data set [1], the “kHO, second-order rate constant” value is 0.00016 M⁻¹ s⁻¹.

`O=C[C@H](O)[C@H](O)[C@H](O)COP(=O)(O)O` [ribose 5′-monophosphate]: in [8], the “pKa of the phosphoryl group” value is reported as 6.25.
